pKd: −log10 of the molar value. Where two headings read alike, the source gives them in different places. Positions of bridges follow the written chain, without caps; N, C: chain ends. Residues, ends and D or L forms follow the SMILES beside them. No end group written: not given here.
Key:
[1] = tested on: PTmAb0005; assay: Phage display ranking of peptide ligands for PTmAb0005; type: binding; conditions: for Rank (ECL) PTmAb0005: primary phage display biopannings (Table 6); for PTmAb Rank 0005: IgEC67 mutants (Table 8)
Method: (§1) Phage display libraries were used to map the binding sites of the monoclonal antibodies using three different phage libraries, displaying either the XCX15, XCX10 or XAX10 peptide sequence (where X is any amino acid) at the N-terminus of the phage gVIIIp. Tables 6 and 7 show the results of selecting for peptide ligands with the anti human IgE monoclonal antibodies […]. […]
This was performed by introducing random mutations by PCR mutagenesis and sub-cloning into the Fuse 5 vector for minor filamentous phage protein gIIIp display. These, and other results, confirmed the importance of the amino acids within IgEC67 which aligned with the Cε2 epitope. […] Mutations in other sites had little effect on the affinity to PTmAb0005.
(§2) This involved a DNA sub-cloning transfer from the major coat protein (gVIIIp) filamentous phage display vector to a lower copy number minor phage coat protein (gIIIp) display vector with a random PCR step. […] Included in the tables are ranking orders and also BIAcore affinities where available.

[2] = biological target: PTmAb0005; assay: BIAcore affinity to PTmAb0005; type: binding; conditions: for Kd: read-out: PTmAb BIAcore KD^Rel (μM) PTmAb0005
From the text: as §2
(§3) Thus indicating the importance of correct presentation of the peptides of the present invention to adopt a shape which closely resembles the native target in the context of the whole IgE molecule. [drawing]

[3] = biological target: PTmAb0011; assay: BIAcore affinity to PTmAb0011; type: binding, mouse; conditions: for Kd: read-out: PTmAb BIAcore KD^Rel (μM) PTmAb0011
From the text: as §2, §3

[4] = tested on: PTmAb0011; assay: Phage display ranking of peptide ligands for PTmAb0011; type: binding, mouse; conditions: for PTmAb Rank 0011: IgEC67 mutants (Table 8)
From the text: as §1, §2

Molecule	Kd [2] [µM]	Kd [3] [µM]	Rank (ECL) PTmAb0005 [1]	PTmAb Rank 0005 [1]	PTmAb Rank 0011 [4]	also measured
CSCC[C@H](NC(=O)[C@H](CCC(N)=O)NC(=O)CNC(=O)[C@H](Cc1ccc(O)cc1)NC(=O)[C@@H](NC(=O)[C@H](CC(C)C)NC(=O)[C@H](CS)NC(=O)[C@@H](N)CCC(=O)O)C(C)C)C(=O)N[C@@H](C)C(=O)N[C@@H](CC(=O)O)C(=O)N[C@@H](CS)C(=O)N[C@@H](C)C(=O)N[C@@H](C)C(=O)NCC(=O)NCC(=O)N[C@@H](Cc1c[nH]c2ccccc12)C(=O)N1CCC[C@H]1C(=O)O [IgEC13] (H-ECLVYGQMADCAAGGWP-OH)	> 1000	> 1000	5			
CC[C@H](C)[C@@H]1NC(=O)[C@H](CCSC)NC(=O)[C@H](CCC(=O)O)NC(=O)[C@H](CO)NC(=O)CNC(=O)CNC(=O)[C@H](CC(C)C)NC(=O)[C@H](Cc2c[nH]c3ccccc23)NC(=O)[C@H](C(C)C)NC(=O)[C@H](CCC(=O)O)NC(=O)[C@H](CCCNC(=N)N)NC(=O)[C@@H](NC(=O)[C@@H](N)CO)CSSC[C@@H](C(=O)N[C@@H](CCC(=O)O)C(=O)O)NC(=O)[C@H](CC(=O)O)NC(=O)[C@H](CCSC)NC1=O [EEC39/50/129] (H-SCREVWLGGSEMIMDCE-OH; disulfide 2-16)	> 1000	2.4				Rank (ECL) PTmAb0011 ([4]; primary phage display biopannings (Table 7)): 1611
CSCC[C@@H]1NC(=O)[C@H](C(C)C)NC(=O)[C@H](CCC(N)=O)NC(=O)CNC(=O)[C@H](CC(=O)O)NC(=O)[C@H](CCC(=O)O)NC(=O)[C@H](CC(C)C)NC(=O)[C@@H](NC(C)=O)CSSC[C@@H](C(=O)N2CCC[C@H]2C(=O)N[C@@H](CCCNC(=N)N)C(=O)N[C@@H](CCC(=O)O)C(=O)N[C@@H](C)C(=O)N[C@@H](C)C(=O)N[C@@H](CCC(=O)O)C(=O)NCC(=O)N[C@@H](CC(=O)O)C(=O)N[C@@H](CCCCNC(C)=O)C(N)=O)NC(=O)[C@H](CC(C)C)NC(=O)[C@H](CC(=O)O)NC(=O)[C@H](C(C)C)NC(=O)[C@H](CC(=O)O)NC1=O [PT1079] (Ac-CLEDGQVMDVDLCPREAAEGDK(Ac)-NH2; disulfide 1-13)						pKd ([2]; BIAcore, read-out: apparent affinity to PTmAb0005): 7.70
ADGAGCFMNKQQADLELCPRGAAEA [IgEC67-14]				1.2	0.9	
ADGAGCFMNKQLVDLELCPRGAAEA [IgEC67-5]				1.9	1.6	
ADGAGCFMNKQLADLELCPREAAEA [IgEC67-7]				1	1	
GAMTAGQLSDLP [ESB25]	60	> 1000	0			
ADGAGCFMNKQMADLELCPREAAEA [IgEC67-10]				4.2	2.3	
ADGAGCFINKQLADLELCPREAAEA [IgEC67-12]				3	1.9	
ADGAGCFINKQLADLELCPRVAAEA [IgEC67-3]				3	1.7	
ADGAGCFMNKQLADLEMCPRDDAEA [IgEC67-9]				2.7	2.4	
CLEDGQVMDVDCPREAAEGDK (disulfide 1-12 (inferred)) [PT1078, P1 mimotope]						binding of the peptide to PTmAb0005 compared with PT1079 [2]: reduced the binding; binding of the peptide to PTmAb0011 compared with PT1079 [3]: reduced the binding
KAGEQAMDMELR [ESB8]	257	> 1000	0			
VAGGQVVDRELK [ESB10/38]	139	> 1000	0			
ADGAGCFMNKQLADPELCPREAEEA [IgEC67-4]				2.4	1.3	

Continued, in another order:

Kd [2] [µM]	Kd [3] [µM]	Molecule	Rank (ECL) PTmAb0005 [1]	PTmAb Rank 0005 [1]	PTmAb Rank 0011 [4]	also measured
3	53.4	CSCC[C@H](NC(=O)[C@H](CCC(N)=O)NC(=O)[C@H](CC(C)C)NC(=O)CNC(=O)[C@H](CCC(=O)O)NC(=O)[C@H](CC(C)C)NC(=O)[C@@H](NC(=O)[C@H](C)NC(=O)[C@H](CC(N)=O)NC(=O)[C@H](CS)NC(=O)[C@@H](N)CCC(N)=O)C(C)C)C(=O)N[C@H](C(=O)N[C@@H](CC(=O)O)C(=O)N[C@@H](Cc1c[nH]cn1)C(=O)N[C@@H](CS)C(=O)N[C@@H](Cc1c[nH]c2ccccc12)C(=O)N[C@@H](CC(N)=O)C(=O)O)C(C)C [IgEC26] (H-QCNAVLEGLQMVDHCWN-OH)	43			
> 600	> 600	CSCC[C@H](NC(=O)[C@H](CCC(=O)O)NC(=O)[C@H](CO)NC(=O)[C@H](CO)NC(=O)[C@@H]1CCCN1C(=O)[C@@H](NC(=O)[C@H](CCSC)NC(=O)[C@H](CCC(N)=O)NC(=O)[C@@H](NC(=O)[C@H](CCC(=O)O)NC(=O)[C@@H]1CCCN1C(=O)[C@H](CC(=O)O)NC(=O)[C@H](C)NC(=O)[C@@H](NC(=O)[C@H](CS)NC(=O)[C@@H](N)CS)C(C)C)[C@@H](C)O)[C@@H](C)O)C(=O)N[C@@H](Cc1ccccc1)C(=O)O [IgEC29] (H-CCVADPETQMTPSSEMF-OH)	40			
6.6	6.4	CC(C)[C@H](NC(=O)[C@H](CC(=O)O)NC(=O)[C@H](CO)NC(=O)[C@@H]1CSSC[C@H](NC(=O)[C@@H](N)CO)C(=O)N[C@@H](C)C(=O)N[C@@H](Cc2ccc(O)cc2)C(=O)N[C@@H]([C@@H](C)O)C(=O)N[C@@H](C)C(=O)N[C@@H](CCC(N)=O)C(=O)N[C@@H](CCCNC(=N)N)C(=O)N[C@@H](CCC(N)=O)C(=O)N1)C(=O)N1CCC[C@H]1C(=O)N[C@@H](CC(N)=O)C(=O)N1CCC[C@H]1C(=O)NCC(=O)O [IgEC69] (H-SCAYTAQRQCSDVPNPG-OH; disulfide 2-10)	11			
0.1	4.8	CSCC[C@@H]1NC(=O)[C@H](Cc2ccccc2)NC(=O)[C@@H](N)CSSC[C@@H](C(=O)N2CCC[C@H]2C(=O)N[C@@H](CCCNC(=N)N)C(=O)N[C@@H](CCC(=O)O)C(=O)O)NC(=O)[C@H](CC(C)C)NC(=O)[C@H](CCC(=O)O)NC(=O)[C@H](CC(C)C)NC(=O)[C@H](CC(=O)O)NC(=O)[C@H](C)NC(=O)[C@H](CC(C)C)NC(=O)[C@H](CCC(N)=O)NC(=O)[C@H](CCCCN)NC(=O)[C@H](CC(N)=O)NC1=O [IgEC67] (H-CFMNKQLADLELCPRE-OH; disulfide 1-13)	243			binding / affinity to PTmAb0005 ([1]; IgEC67 and its mutants, gIIIp display): highest affinity
78	6.3	CSCC[C@H](NC(=O)[C@H](CC(N)=O)NC(=O)[C@@H](NC(=O)[C@@H](NC(=O)[C@H](CCC(N)=O)NC(=O)[C@@H](NC(=O)[C@H](CC(=O)O)NC(=O)[C@@H](NC(=O)[C@@H](NC(=O)[C@H](CS)NC(=O)[C@@H](N)CS)C(C)C)[C@@H](C)O)C(C)C)[C@@H](C)O)[C@@H](C)O)C(=O)N[C@@H](CC(=O)O)C(=O)N[C@H](C(=O)N1CCC[C@H]1C(=O)N[C@@H](C)C(=O)NCC(=O)N[C@@H](CCC(N)=O)C(=O)O)C(C)C [IgEC81] (H-CCVTDVQTTNMDVPAGQ-OH)	0			
> 600	> 600	CC[C@H](C)[C@H](NC(=O)[C@@H]1CCCN1C(=O)[C@H](CC(C)C)NC(=O)CNC(=O)[C@H](CCCNC(=N)N)NC(=O)[C@H](CC(N)=O)NC(=O)[C@@H]1CCCN1C(=O)[C@H](CC(=O)O)NC(=O)[C@H](C)NC(=O)[C@@H]1CCCN1C(=O)[C@H](CO)NC(=O)[C@H](CC(=O)O)NC(=O)[C@H](CO)NC(=O)[C@H](CCSC)NC(=O)[C@H](CS)NC(=O)[C@@H](N)CS)C(=O)N[C@@H](Cc1c[nH]c2ccccc12)C(=O)O [IgEC66] (H-CCMSDSPADPNRGLPIW-OH)	0			
> 600	> 600	CC[C@H](C)[C@H](NC(=O)CNC(=O)[C@@H]1CCCN1C(=O)[C@H](CCC(N)=O)NC(=O)[C@H](Cc1c[nH]cn1)NC(=O)[C@@H]1CCCN1C(=O)[C@@H](NC(=O)[C@H](CC(=O)O)NC(=O)[C@H](CO)NC(=O)[C@H](CCC(N)=O)NC(=O)[C@H](CS)NC(=O)[C@@H](N)CS)C(C)C)C(=O)N[C@@H](CC(N)=O)C(=O)N[C@@H](CC(=O)O)C(=O)N[C@@H](CC(C)C)C(=O)N[C@@H](Cc1c[nH]cn1)C(=O)N[C@H](C(=O)O)C(C)C [IgEC73] (H-CCQSDVPHQPGINDLHV-OH)	0			
60	> 1000	CSCC[C@H](NC(=O)[C@@H](NC(=O)[C@H](Cc1ccccc1)NC(=O)[C@H](CCC(N)=O)NC(=O)[C@H](CCCNC(=N)N)NC(=O)[C@H](CS)NC(=O)[C@@H](N)CCC(N)=O)C(C)C)C(=O)N[C@@H](CC(N)=O)C(=O)N[C@@H](CCC(N)=O)C(=O)N[C@@H](CO)C(=O)N[C@@H](CCC(=O)O)C(=O)N[C@@H](CCCCN)C(=O)N[C@@H](CCC(=O)O)C(=O)N[C@@H](Cc1ccccc1)C(=O)NCC(=O)N[C@@H](CCC(N)=O)C(=O)N[C@@H](CS)C(=O)O [IgEC56] (H-QCRQFVMNQSEKEFGQC-OH)	0			
19.4	> 500	CC[C@H](C)[C@H](NC(=O)[C@H](CCCCN)NC(=O)[C@H](CC(C)C)NC(=O)[C@H](CS)NC(=O)[C@@H](N)CCC(=O)O)C(=O)N[C@@H](CCC(=O)O)C(=O)N[C@@H](CCC(N)=O)C(=O)N[C@@H](CCC(N)=O)C(=O)N[C@@H](CS)C(=O)N[C@@H](C)C(=O)N[C@@H](CC(=O)O)C(=O)N[C@H](C(=O)N[C@H](C(=O)N[C@@H](CCC(=O)O)C(=O)N[C@H](C(=O)N1CCC[C@H]1C(=O)N[C@@H](CCCNC(=N)N)C(=O)O)[C@@H](C)CC)C(C)C)[C@@H](C)CC [IgEC42] (H-ECLKIEQQCADIVEIPR-OH)	15			

Reference: US20050214285A1, “Epitopes or mimotopes derived from the C-epsilon-3 or C-epsilon-4 domains of IgE, antagonists thereof, and their therapeutic uses” (SmithKline Beecham Biologicals, s.a. and Peptide …, priority 1999, published 2005)
